Experimental data published in patent publication US20260242440A1, “NOVEL MEANS TO MODULATE NMDA RECEPTOR-MEDIATED TOXICITY” (FUNDAMENTAL PHARMA GMBH, priority 2018, published 2026).
“Also recorded” adds a separate entry of the source.

Columns and labels:
NMDA receptor = assay: NMDA-induced calcium transients (Fura2 calcium imaging); format: cell-based, mouse; settings: hippocampal neurons, 6 min NMDA (20 μM) application
Procedure: In a further experiment, the impact of P4 and P15 on NMDA-induced calcium transients was assessed. Briefly, for calcium imaging, primary hippocampal neurons on coverslips were loaded with the cell-permeable, high-affinity ratiometric calcium indicator Fura2-AM (Invitrogen™ F1221), at 1 μM in CO2-independent culture medium (CICM; CICM contains: 10 mM HEPES, 140 mM NaCl, 2.5 mM KCl, 1.0 mM MgCl2, 2.0 mM CaCl2, 1.0 mM Glycine, 35.6 mM Glucose and 0.5 mM Na-pyruvate) for 30 min at 37° C., then washed and left in CICM for another 30 min to allow for de-esterification. Fura2 was excited at 340/11 nm and 380/11 nm, and fluorescence emission was obtained from a 40× UV compatible objective (LUMPLFLN, Olympus) through a 510/20 nm emission filter. For quantification, ImageJ was used to calculate average background-subtracted fluorescence intensities for 340 and 380 nm excitation (F340 and F380) from each neuron. Intracellular calcium levels were plotted as F340/F380 ratios over time, from which the NMDA response amplitude and area under the curve (AUC) was calculated to quantify NMDA-induced calcium influx.

[1] = biological target: T1, NMDA receptor/TRPM4 complex (Mus musculus, UniProt Q7TN37); assay: co-immunoprecipitation of NMDA receptor/TRPM4 complex from mouse cortical lysates after i.p. injection; format: in vivo
T1 construct: cortical lysates were obtained from control mice and from mice 2 h, 6 h and 24 h following intraperitoneal injection; from tissue; host or cells: mouse cortex (lysate after i.p. injection of compound P4)
T1 sequence (Q7TN37 whole entry, one chain of several): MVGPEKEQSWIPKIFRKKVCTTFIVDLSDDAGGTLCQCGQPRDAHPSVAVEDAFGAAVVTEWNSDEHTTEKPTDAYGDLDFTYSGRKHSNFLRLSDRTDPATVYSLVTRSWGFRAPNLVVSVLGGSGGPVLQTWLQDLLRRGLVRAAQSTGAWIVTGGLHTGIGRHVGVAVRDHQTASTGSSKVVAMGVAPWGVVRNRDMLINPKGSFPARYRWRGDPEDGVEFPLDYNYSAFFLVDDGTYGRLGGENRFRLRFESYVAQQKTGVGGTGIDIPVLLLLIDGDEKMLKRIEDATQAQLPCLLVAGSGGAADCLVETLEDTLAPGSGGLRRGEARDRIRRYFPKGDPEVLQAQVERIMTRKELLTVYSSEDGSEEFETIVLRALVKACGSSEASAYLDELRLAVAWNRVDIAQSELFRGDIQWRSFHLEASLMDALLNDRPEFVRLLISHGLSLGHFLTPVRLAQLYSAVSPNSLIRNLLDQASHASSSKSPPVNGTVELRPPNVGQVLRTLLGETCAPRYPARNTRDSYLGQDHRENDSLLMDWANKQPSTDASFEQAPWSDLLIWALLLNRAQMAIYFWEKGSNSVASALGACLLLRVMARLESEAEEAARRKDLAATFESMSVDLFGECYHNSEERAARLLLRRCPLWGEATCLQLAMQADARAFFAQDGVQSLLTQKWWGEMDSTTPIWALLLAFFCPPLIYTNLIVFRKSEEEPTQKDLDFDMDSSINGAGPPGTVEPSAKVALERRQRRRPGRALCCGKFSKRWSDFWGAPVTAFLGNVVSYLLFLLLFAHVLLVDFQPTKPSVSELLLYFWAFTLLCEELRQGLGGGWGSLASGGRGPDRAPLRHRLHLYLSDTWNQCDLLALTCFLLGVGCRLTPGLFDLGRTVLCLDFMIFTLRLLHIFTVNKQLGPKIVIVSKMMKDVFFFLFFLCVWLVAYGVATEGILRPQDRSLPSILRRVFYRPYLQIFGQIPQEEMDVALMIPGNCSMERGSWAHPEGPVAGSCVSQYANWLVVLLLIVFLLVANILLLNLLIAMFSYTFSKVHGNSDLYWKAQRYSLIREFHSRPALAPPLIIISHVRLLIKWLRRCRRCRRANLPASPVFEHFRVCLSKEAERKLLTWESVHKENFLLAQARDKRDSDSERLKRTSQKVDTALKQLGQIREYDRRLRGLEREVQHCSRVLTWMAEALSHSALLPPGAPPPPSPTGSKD
Procedure: In a further experiment it was assessed whether compound P4 has any impact on NMDA receptor/TRPM4 complex formation. For this purpose, co-immunoprecipitation experiments using brain lysates from the mouse cortex where carried out. Briefly, cortical lysates were obtained from control mice and from mice 2 h, 6 h and 24 h following intraperitoneal injection of compound P4 (40 mg/kg) in immunoprecipitation buffer (10 mM Tris, pH 8.0, 150 mM NaCl, 1 mM EDTA, 1% NP-40, 10% glycerol with Protease Inhibitor Cocktail, Roche) for 60 min. The lysate was then centrifuged for 12 min at 1200 g to remove cell debris and nuclei. The mixture of supernatant was incubated with anti-TRPM4 antibodies overnight. Pierce™ Protein A Magnetic Beads were added to the mixture and mixed another 12 h, followed by 3 washes with immunoprecipitation buffer. The precipitates were subsequently boiled in protein loading buffer and separated in 7.5% SDS-PAGE.

TRPM4 channel = biological target: T2, TRPM4 channel (Homo sapiens, UniProt Q8TD43); assay: TRPM4 channel function, whole-cell patch clamp in PC3 cells; format: cell-based; settings: 10 μM compound, pre-incubated 30-60 min
T2 construct: PC3 cells are known to express TRPM4 channels; endogenous in cells; host or cells: PC3 prostate cancer cell line
T2 sequence (Q8TD43 whole entry): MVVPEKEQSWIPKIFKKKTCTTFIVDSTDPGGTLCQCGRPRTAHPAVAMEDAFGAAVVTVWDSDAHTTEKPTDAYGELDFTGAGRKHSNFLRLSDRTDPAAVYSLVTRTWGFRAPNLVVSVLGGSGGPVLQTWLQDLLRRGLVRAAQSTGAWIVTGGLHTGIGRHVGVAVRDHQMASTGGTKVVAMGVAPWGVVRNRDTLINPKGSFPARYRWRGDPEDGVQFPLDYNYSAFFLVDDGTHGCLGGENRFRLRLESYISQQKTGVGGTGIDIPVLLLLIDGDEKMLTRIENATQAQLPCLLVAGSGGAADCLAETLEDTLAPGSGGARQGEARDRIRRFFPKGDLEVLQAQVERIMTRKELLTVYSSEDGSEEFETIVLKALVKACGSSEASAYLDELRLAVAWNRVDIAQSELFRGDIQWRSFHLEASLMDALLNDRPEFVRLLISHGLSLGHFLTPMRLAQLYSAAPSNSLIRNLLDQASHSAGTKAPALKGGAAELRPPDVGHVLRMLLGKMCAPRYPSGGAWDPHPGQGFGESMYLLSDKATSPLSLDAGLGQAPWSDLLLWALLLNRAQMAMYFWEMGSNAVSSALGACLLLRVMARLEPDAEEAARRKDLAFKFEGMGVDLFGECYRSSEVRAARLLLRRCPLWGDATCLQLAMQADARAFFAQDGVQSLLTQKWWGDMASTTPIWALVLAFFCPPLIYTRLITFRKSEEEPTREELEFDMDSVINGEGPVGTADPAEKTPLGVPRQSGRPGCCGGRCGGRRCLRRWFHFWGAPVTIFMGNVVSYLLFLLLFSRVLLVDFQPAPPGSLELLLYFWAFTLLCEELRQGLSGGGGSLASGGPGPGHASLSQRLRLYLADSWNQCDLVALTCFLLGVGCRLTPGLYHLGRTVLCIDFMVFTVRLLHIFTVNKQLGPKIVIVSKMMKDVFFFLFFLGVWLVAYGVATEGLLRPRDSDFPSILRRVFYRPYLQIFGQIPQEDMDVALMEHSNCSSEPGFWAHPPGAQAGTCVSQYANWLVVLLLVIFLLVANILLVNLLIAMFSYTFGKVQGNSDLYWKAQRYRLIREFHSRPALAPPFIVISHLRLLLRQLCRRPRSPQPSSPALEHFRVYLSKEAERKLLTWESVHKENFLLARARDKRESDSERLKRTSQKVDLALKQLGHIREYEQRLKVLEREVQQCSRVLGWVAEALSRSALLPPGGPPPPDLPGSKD
Excerpt: To assess any direct impact of compound P4 and compound P15 on TRPM4 channel function independent of NMDA receptors, the inventors used the prostate cancer cell line PC3 and patch clamp recordings. PC3 cells are known to express TRPM4 channels (C. Holzmann et al., Oncotarget. 6, 41783-93 (2015)). TRPM4 currents in turn are characterized by their calcium dependence and outward rectification (P. Launay et al., Cell. 109, 397-407 (2002)). Briefly, whole-cell patch clamp recordings were made from PC3 cells plated on 12 mm round coverslips secured with a platinum ring in a recording chamber (OAC-1, Science Products GmbH) mounted on a fixed-stage upright microscope (BX51WI, Olympus). […] Patch electrodes (3-4 MΩ) were made from 1.5 mm borosilicate glass and filled with cesium-based solutions (in mM: CsCl, 145; NaCl, 8; HEPES, 10; MgCl2, 1; plus either EGTA, 0.2 for a free Ca^2+ concentration of zero; or EGTA, 10 and CaCl2), 9.4 for a calculated free Ca^2+ concentration of 10 μM; Maxchelator, Stanford University). Recordings were made with a Multiclamp 700B amplifier, digitized through a Digidata 1550B and acquired and analyzed using pClamp 10 software (Molecular Devices). Access resistance (range: 10-20 MΩ) was monitored regularly during voltage clamp recordings and data was rejected if changes greater than 20% occurred.

[2] = system: primary mouse hippocampal neurons; assay: NMDA induced cell death (excitotoxicity) in cultured primary neurons; format: cell-based; settings: 30 min pre-treatment with 10 μM compound; NMDA 20 μM for 10 min or 24 hours; cell death 24 hours after challenge
synaptic NMDA receptor = assay: Gabazine induced calcium influx into mitochondria (synaptic NMDA receptor signalling); format: cell-based, mouse; settings: primary cultured neurons, polypeptides expressed via rAAV
Procedure: Gabazine induced mitochondrial Ca^2+ response in primary cultured neurons is recorded and analysed as described in a previous study (Qiu et al, Nat Commun. 2013; 4:2034, incorporated herewith by reference) using a FRET calcium indicator 4mtD3cpv that specifically located to mitochondria. Briefly, mitochondrial Ca^2+ levels were detected with FRET-based and mitochondrial targeted Ca^2+ indicator 4mtD3cpv. 4mtD3cpv were excited at 430±12 nm (CFP) and 500±10 nm (YFP), and emission of CFP (470±12 nm) and YFP (535±15 nm) were separated and filtered using a DualView beam splitter (AHF Analysentechnik and MAG Biosystems), and all fluorescence images were recorded through a 20× water-immersion objective at 1 Hz.
In a further experiment the inventors assessed the impact of the polypeptide comprising the sequence of SEQ ID NO:5 and SEQ ID NO: 54, respectively, on Gabazine induced calcium influx (mitochondria), a measure of synaptic NMDA receptor signalling. The experiment was carried out in primary cultured neurons as described above.

reduction in NMDA receptor/TRPM4 complex formation ([1]; 2 h after single i.p. injection of 40 mg/kg) [%] | reduction in NMDA receptor/TRPM4 complex formation ([1]; 6 h after single i.p. injection of 40 mg/kg) [%] | NMDA receptor/TRPM4 complex formation ([1]; 24 h after i.p. injection of 40 mg/kg) | Molecule | NMDA-induced calcium transients (NMDA receptor) | TRPM4-like outwardly rectifying current activated by 10 μM Ca2+ (TRPM4 channel) | NMDA receptor induced cell death (transient and chronic NMDA toxicity) [2] | Gabazine induced calcium influx into mitochondria (synaptic NMDA receptor)
51 | 61 | had reformed | CCN(CCN)Cc1cccc(Br)c1 [P4] | neither compound P4 nor compound P15 reduced; also recorded: neither compound P4 nor P15 reduced | not affected | neuroprotective effect | –
– | – | – | SEQ ID NO:5: polypeptide, amino acid residues 633-689 of mouse TRPM4 (NSEERAARLLLRRCPLWGEATCLQLAMQADARAFFAQDGVQSLLTQKWWGEMDSTTP; listed as Mus musculus) | – | – | – | neither of these polypeptides affects synaptic NMDA receptor signalling; also recorded: not affected
